In paper PMC9582199, “Molecular architecture of the glycogen- committed PP1/PTG holoenzyme” (Nature Communications, 2022):
Like-named read-outs stand apart in the source and are kept apart here.

How the values were obtained:
[1] = biological target: T1, PTG132-264 (CBM) (Homo sapiens, UniProt Q9UQK1); assay: GCI binding kinetics of β-cyclodextrin on immobilized PTG; conditions: 25 °C, 10 mM Hepes pH 7.2, 150 mM NaCl, 0.005% Tween 20, 1:3 dilutions from 500 µM
T1 sequence (Q9UQK1 132-264): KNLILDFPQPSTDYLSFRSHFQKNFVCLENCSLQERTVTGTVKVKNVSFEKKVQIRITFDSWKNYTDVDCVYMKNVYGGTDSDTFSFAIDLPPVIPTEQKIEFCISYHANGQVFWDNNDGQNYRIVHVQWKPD
Protocol: (§1) Grating-coupled interferometry (GCI) experiments were performed using the Creoptix WAVE system, a new generation instrument for the high-sensitivity kinetics and affinity analysis of label-free molecular interactions based on the waveguide interferometry technology. Waveguide interferometry exceeds the sensitivity levels of Surface Plasmon Resonance (SPR). […] GCI allows getting high resolution even at very low signal levels with low noise without artificial data averaging and reliable kinetics below 1 pg/mm^2. By the lower immobilization levels that are required, it avoids mass transport limitations. It covers the broadest kinetic range with the capability of analyzing of the ultra-fast transition times (i.e. 150 ms). It allows the reliable determination of off-rates of 5 s^–1 and even faster, enabling off-rate screening of weakly binding analytes. GCI can be applied to a wide range of pharmacological targets, with improved results on very low molecular weight compounds, to the dimensions of metal ions[56].
(§2) WAVE chips are composed of four channels or cells. Borate buffer (100 mM sodium borate pH 9.0, 1 M NaCl) was used for chip conditioning. […]
(§3) Supplementary Figure 3: Quantitative binding kinetics by GCI. […]

[2] = biological target: R. oryzae CBM21; conditions: cited from earlier work
Description: (§4) The same two sugar-binding sites have been identified in the crystal structures of Rhizopus oryzae CBM21[13],[14]; site II is the primary binding site, while site I has been hypothesized to contribute to the binding of long-chain soluble polysaccharides and insoluble starch or to the relaxation and unwinding of helical amylose[15],[16].

[3] = biological target: GM CBM21; conditions: cited from earlier work
Description: as §4

[4] = biological target: T2, PTG CBM21 (residues 132–264) (Homo sapiens, UniProt Q9UQK1); assay: ITC titration of PTG CBM21 with β-cyclodextrin; format: binding; conditions: 25 °C
T2 sequence (Q9UQK1 132-264): T1 sequence (Q9UQK1 132-264)
Protocol: ITC experiments were performed using an ITC 200 microcalorimeter (Malvern Panalytical, UK) at 25 °C with a stirring speed of 750 rpm in 25 mM Hepes pH 7.4, 0.2 M NaCl, 5% glycerol with 180 s separating the injections. β-cyclodextrin was dissolved in the running buffer and two datasets were collected, one with PTG CBM21 concentration at 100 μM and β-cyclodextrin at 3 mM with 40 injections of 1 µl, the other at 200 μM and 4 mM, respectively, with 80 injections of 1 µl. A blank run with only the buffer was carried out. Data analysis was done with ORIGIN subtracting the blank titrations fitting ‘one site’ and ‘two sites’ models.

[5] = tested on: PP1; assay: Literature binding of GM constructs to PP1; conditions: GM 64–105 (KD 114 nM, ref 12) compared with the corresponding PTG peptide
[6] = biological target: T3, PP1 7-330 (Homo sapiens, UniProt P62136); assay: GCI binding kinetics of PTG-derived peptides on captured PP1; conditions: 25 °C, 6xHis-PP1 7-330 captured on NTA chip, peptide 1:2 dilutions from 300 nM
T3 construct: reversibly capturing 6xHis-tagged PP1^7-330; host or cells: E. coli BL21 (DE3) pGro7
T3 sequence (P62136 7-330): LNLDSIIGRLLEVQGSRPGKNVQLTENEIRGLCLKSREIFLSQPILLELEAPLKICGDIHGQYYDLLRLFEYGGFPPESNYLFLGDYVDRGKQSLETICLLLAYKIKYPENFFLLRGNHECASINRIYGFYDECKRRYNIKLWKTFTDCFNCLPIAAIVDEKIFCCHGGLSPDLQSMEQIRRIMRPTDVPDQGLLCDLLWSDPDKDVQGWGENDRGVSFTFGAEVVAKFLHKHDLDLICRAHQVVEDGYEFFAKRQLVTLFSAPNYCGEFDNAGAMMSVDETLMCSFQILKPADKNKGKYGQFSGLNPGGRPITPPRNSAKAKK
Protocol: as §1, §2, §3

[7] = 'two sites' model with stoichiometry fixed, average of two runs
[8] = 'two sites' model, average of two runs
[9] = 'two sites' model, average of two separate runs

OC[C@H]1O[C@@H]2O[C@H]3[C@H](O)[C@@H](O)[C@@H](O[C@H]4[C@H](O)[C@@H](O)[C@@H](O[C@H]5[C@H](O)[C@@H](O)[C@@H](O[C@H]6[C@H](O)[C@@H](O)[C@@H](O[C@H]7[C@H](O)[C@@H](O)[C@@H](O[C@H]8[C@H](O)[C@@H](O)[C@@H](O[C@H]1[C@H](O)[C@H]2O)O[C@@H]8CO)O[C@@H]7CO)O[C@@H]6CO)O[C@@H]5CO)O[C@@H]4CO)O[C@@H]3CO [β-cyclodextrin]
Kd [1]: 37 ± 7 µM | Kd [2]: 5.1 µM | Kd [3]: 8.2 µM | Kd ([4]; 25 mM Hepes pH 7.4, 0.2 M NaCl, 5% glycerol, 'one site' model, average of two separate runs, read-out: KD (KD1), 1 Site model): 59 ± 5 µM | ΔS1, 1 Site model ([4]; 'one site' model, average of two separate runs): -53 cal mol-1 K-1 | N (stoichiometry), 1 Site model ([4]; 'one site' model, average of two separate runs, listed as b-cyclodextrin): 1.09 | Kd ([4]; 'two sites' model with stoichiometry fixed (N 1.0 each site), average of two runs, read-out: KD1, 2 Sites fixed model, first site): 49 ± 4 µM | ΔH1, 2 Sites fixed model, first site [4, 7]: -103 ± 2.9 kJ/mol | ΔS1, 2 Sites fixed model, first site [4, 7]: -62 cal mol-1 K-1 | ΔS2, 2 Sites fixed model, second site [4, 7]: 21 cal mol-1 K-1 | Kd ([4]; 'two sites' model with stoichiometry fixed, average of two runs, spread ± 154, site spurious or ancillary, read-out: KD2, 2 Sites fixed model, second site): 346 µM | ΔH2, 2 Sites model, second site [4, 8]: -66.9 ± 8.4 kJ/mol | ΔS2, 2 Sites model, second site [4, 8]: -29 cal mol-1 K-1 | N2, 2 Sites model, second site ([4]; 'two sites' model, average of two runs, paper calls second-site stoichiometry inconsistent): 0.3 | Kd ([4]; 'two sites' model, average of two runs, second site judged inconsistent, read-out: KD2, 2 Sites model, second site): 3 ± 2 µM | N1, 2 Sites model, first site [4, 9]: 1.06 | ΔH1, 2 Sites model, first site [4, 9]: -75.3 ± 17 kJ/mol | ΔS1, 2 Sites model, first site [4, 9]: -40 cal mol-1 K-1 | Kd ([4]; 'two sites' model, average of two separate runs, read-out: KD1, 2 Sites model, first site): 63 ± 6 µM

GM peptide 64–105: GM (PPP1R3A) peptide 64–105, corresponding to PTG 84–131; literature comparator (VSFADSFGFNLVSVKEFDCWELPSASTTFDLGTDIFHTEEYV; UniProt Q16821 64-105, looked up, fragment)
times weaker PP1 binding than measured for PTG [5]: ~15 times

PTG81-132: extended PTG peptide, residues 81–132, including RVVF and SALK sequences; ProteoGenix SAS (AKKRVVFADSKGLSLTAIHVFSDLPEEPAWDLQFDLLDLNDISSALKHHEEK)
KD by GCI for binding to PP1 [6]: almost halved
